Results as given in patent US20050013853A1, “Anti-proliferative drugs” (priority 2000, published 2005).
Read-outs that look alike come from different tables or passages of the source. Each block holds one compound with its values, some of them ahead of it.

Tests used:
HaCat A5 cells = test: Cell viability of HaCat A5 keratinocytes, Neutral Red Staining; assay type: cell-based, human; conditions: for Effect on viability of HaCat A5 cells: 5-100 μM, 24 hr
Procedure: (§1) In general, 10,000 cells/well were treated with drugs from different categories of psychotropic drugs.
(§2) The effect of the drugs was compared at equimolar concentrations to that of two commonly used anticancer agents (Doxorubicin and 5-fluorouracil (5-FU)).

HaCat cells [1] = test: Cell viability of HaCat keratinocytes, Neutral Red Staining; assay type: cell-based, human; conditions: for Responsiveness of HaCat cells (viability): comparison of thioridazine, doxorubicin, 5-FU, FIG. 3A; for IC50: Homo sapiens, HaCaT, read-out: Mean IC50 in keratinocytes, HaCat; for Effect on viability of HaCat cells: 5-100 μM, 24 hr
Procedure: as §1, §2

[2] = tested on: IL-2 and INF-γ secretion from mouse splenocytes; test: Con-A-induced splenocyte secretion of IL-2 and INF-γ; assay type: cell-based; conditions: 48 hours, 2.5-10 μM; FIG. 14
Procedure: (§3) In particular, cells 1×10^6 cells/well were exposed for 48 hours to each drug (2.5-10 μM).

HaCat cells [3] = test: Apoptosis by Hoechst 33342 / propidium iodide fluorescence microscopy; assay type: cell-based, human; conditions: 20 μM, 24 hours
Procedure: In particular, HaCat cells (10,000/well) were exposed to the different drugs (20 μM) or to saline (control). Twenty four hours post exposure, the cells were co-stained with the DNA binding dyes, Hoechst 33342 (20 μg/ml) propidium iodide (PI) (10 μg/ml), for 5 min at room temperature. The cells were then examined using a fluorescence microscope with ultraviolet excitation at 340-380 nm. Typically, intact cells are detected by a blue Hoechst fluorescence while fragmented nuclear is detected by a red fluorescence, indicating cells undergoing apoptosis [Harel et al., Sensitivity of HaCat keratinocytes to diabetogenic toxins, Biochem. Pharmacol., 63:171-178, 2002].

MDR B16 melanoma cells [4] = test: Sensitization of MDR B16 melanoma cells to doxorubicin; assay type: cell-based; conditions: 24 hr
HaCat II-4RT cells = test: Cell viability of HaCat II-4RT keratinocytes, Neutral Red Staining; assay type: cell-based, human; conditions: for Effect on viability of HaCat II4 cells: 5-100 μM, 24 hr
Procedure: as §1, §2

mouse splenocytes = test: Con-A-induced mouse splenocyte proliferation, Alamar blue; assay type: cell-based; conditions: for Splenocyte proliferation: 48 hours
Procedure: The effect of several psychotropic drugs on the proliferation of Con-A-induced mouse splenocyte proliferation was examined. The specific drugs evaluated included, without being limited thereto, the bicyclic antidepressants paroxetine and sertraline.
In particular, mouse splenocytes were isolated from C57BL healthy female mice. […]
Cell viability was assessed 48 hr later using Alamar blue staining.
as §3
(§4) As described above, cells were exposed to each drug for 48 hours.

[5] = tested on: wild type B16 melanoma cells; test: Cell viability of wild type B16 melanoma cells; assay type: cell-based; conditions: 24 hr, 10-100 μM
[6] = tested on: wild type B16 melanoma cells; test: Effect on doxorubicin toxicity in wild type B16 melanoma cells; assay type: cell-based; conditions: clomipramine 10, […], 20 μM + doxorubicin 1, 2.5, 5 μM, 24 hr
MDR B16 melanoma cells [7] = test: Cell viability of MDR B16 melanoma cells; assay type: cell-based; conditions: 24 hr
Procedure: Specifically, the different drugs were applied for 24 hr to the cells (20,000/well) at concentrations of 10, 20, 30, 50, 75 and 100 μM.

[8] = tested on: caspase-3 in human HaCaT cells; test: Caspase-3 activation, fluorimetric Ac-DEVD-AMC method; assay type: cell-based; conditions: 4 hours, paroxetine 10-20 μM, sertraline 10-[…] μM
Procedure: An additional marker for apoptosis is the activation of caspase-3 (a key mediator implicated in apoptosis in mammalian cells belong to the asparate-specific cysteinyl proteases or caspases).
In the following assay caspase-3 activation was measured by an enzymatic fluorimetric method, using fluorigenic substrate (Ac-DEVD-AMC) (Biomol, PA, USA) which produces a blue fluorescence detected at a 360 nm wavelength. The fluorigenic moiety AMC is cleaved from the substrate in the presence of caspase-3 (and caspase-3-like enzymes), which results in appearance of a yellow-green fluorescence monitored by a fluorimeter at 460 nm. The amount of the yellow-green fluorescence is proportional to the activity of the caspase-3 in the cell extract sample.
[…]. […] Measurements were determined, after the 4 hr exposure, every 3 min during 45 min, after which a specific caspase 3 inhibitor DEVD-AMC-CHO (Alexis corp. Lausen Switzerland) was added to half of the samples and measurements continued for another 45 min as previously described (Garcia-Calvo M, Peterson E P, Leiting B, Ruel R, Nicholson D W, Thornberry N A: Inhibition of human caspases by peptide-based and macromolecular inhibitors. J Biol Chem, 27(49):32608-13, 1998).

[9] = tested on: TNF-α secretion from mouse splenocytes; test: Con-A-induced TNF-α secretion from mouse splenocytes, ELISA; assay type: cell-based; conditions: 48 hours; for IC50: Mus musculus, Splenocyte, 2.5-20 μM, mean of three experiments
Procedure: Cells treated with Con-A alone served as the control (“Con-A”).
In particular, mouse splenocyte cells 1×10 (cells/well) were exposed, for 48 hours, to the different drugs and ConA and at the end of the experiment plates were centrifuged and supernatant collected for cytokine determination and TNF-α levels were determined in soups by ELISA. (R&D #DY410 Minnapolis USA)
as §4

human lymphocytes = test: PHA-induced human lymphocyte proliferation, Alamar blue; assay type: cell-based; conditions: PHA 2.5 μg/ml, 48 hr, 3 healthy volunteers
Procedure: Human lymphocytes were isolated from whole blood of 3 healthy volunteers. Lymphocyte proliferation was induced by exposure 1×10^6 cells/well to phytohemagglutinin (PHA) (2.5 μg/ml). Cell viability was assessed 48 hr post exposure to paroxetine (2.5-10.0 μM) using Alamar blue reagent (Wildflower, Santa Fe, N.M., USA) staining Nociari M M, Shalev A, Benias P , et al. A novel one-step highly sensitive fluorimetric assay to evaluate cell-mediated cytotoxicity. J. Immunol. Methods 213(2): 157-167, 1998.

[10] = 24 hr post-administration, Neutral Red, mean of several experiments

SMILES: O=c1[nH]cc(F)c(=O)[nH]1 [5-FU, 5-fluorouracil]
- Responsiveness of HaCat A5 cells (viability) (HaCat A5 cells; comparison of thioridazine, doxorubicin, 5-FU, FIG. 3B): resistant
- Responsiveness of HaCat cells (viability) (HaCat cells [1]): resistant

SMILES: CN(C)CCCC1(c2ccc(F)cc2)OCc2cc(C#N)ccc21 (stereo not shown) [Citalopram, citalopram]
- IC50 (HaCat cells [1]; [10]): > 100 µM

SMILES: CN(C)CCCN1c2ccccc2CCc2ccc(Cl)cc21 [Clomipramine, clomipramine]
- Lymphocyte-induced cytokine secretion (IL-2, INF-γ) [2]: decrease in the lymphocyte-induced cytokine secretion
- Red fluorescence of nuclei indicating apoptosis (HaCat cells [3]): dramatic increase in red fluorescence of nuclei
- Effect on viability of HaCat A5 cells (HaCat A5 cells): effective in reducing viability
- Cell viability in combination with doxorubicin (MDR B16 melanoma cells [4]): significantly reduced, in a dose dependant manner
- Effect on viability of HaCat II4 cells (HaCat II-4RT cells): effective in reducing viability
- Splenocyte proliferation (mouse splenocytes; 2.5-10 μM, FIG. 14): dose dependent decrease in splenocyte proliferation
- Effect on viability of HaCat cells (HaCat cells [1]): effective in reducing viability
- Viability of wild type B16 melanoma cells [5]: capable of reducing cell viability
- Cell viability from control, in combination with doxorubicin [6]: less than 15%

SMILES: CN1CCN(C2=Nc3cc(Cl)ccc3Nc3ccccc32)CC1 [Clozapine, clozapine]
- Effect on viability of HaCat A5 cells (HaCat A5 cells): effective in reducing viability
- Effect on viability of HaCat II4 cells (HaCat II-4RT cells): effective in reducing viability
- Viability of MDR B16 melanoma cells (MDR B16 melanoma cells [7]): reduced in a dose dependent manner
- Effect on viability of HaCat cells (HaCat cells [1]): effective in reducing viability
- Viability of wild type B16 melanoma cells [5]: reduced in a dose dependent manner

SMILES: CNCCC(Oc1ccc(C(F)(F)F)cc1)c1ccccc1 (stereo not shown) [Fluoxetine, fluoxetine]
- Effect on viability of HaCat A5 cells (HaCat A5 cells): effective in reducing viability
- Effect on viability of HaCat II4 cells (HaCat II-4RT cells): effective in reducing viability
- Effect on viability of HaCat cells (HaCat cells [1]): effective in reducing viability
- Viability of wild type B16 melanoma cells [5]: capable of reducing cell viability, with fluoxetine being the most effective drug

SMILES: CN(C)CCCN1c2ccccc2CCc2ccccc21 [Imipramine, imipramine]
- Effect on viability of HaCat A5 cells (HaCat A5 cells): effective in reducing viability
- IC50 (HaCat A5 cells; Homo sapiens, HaCaT, 24 hr post-administration, Neutral Red, mean of several experiments): 62 µM
- Effect on viability of HaCat II4 cells (HaCat II-4RT cells): effective in reducing viability
- IC50 (HaCat II-4RT cells; Homo sapiens, HaCaT, 24 hr post-administration, Neutral Red, mean of several experiments, read-out: Mean IC50 in keratinocytes, HaCatII4RT): 48 µM
- Effect on viability of HaCat cells (HaCat cells [1]): effective in reducing viability

- IC50 [9]: 2.5 µM
SMILES: Fc1ccc([C@@H]2CCNC[C@H]2COc2ccc3c(c2)OCO3)cc1 [Paroxetine, paroxetine]
- Lymphocyte-induced cytokine secretion (IL-2, INF-γ) [2]: decrease in the lymphocyte-induced cytokine secretion
- Caspase-3 activity [8]: significant increase in caspase-3 activity
- Red fluorescence of nuclei indicating apoptosis (HaCat cells [3]): dramatic increase in red fluorescence of nuclei
- Effect on viability of HaCat A5 cells (HaCat A5 cells): effective in reducing viability
- TNF-α secretion ([9]; 2.5-25 μM, FIG. 16): inhibited cell proliferation and TNF-α secretion in a dose dependent manner
- Effect on viability of HaCat II4 cells (HaCat II-4RT cells): effective in reducing viability
- Splenocyte proliferation (mouse splenocytes; 2.5-10 μM, FIG. 14): dose dependent decrease in splenocyte proliferation
- Splenocyte proliferation (mouse splenocytes; 2.5-25 μM, FIG. 16): inhibited cell proliferation and TNF-α secretion in a dose dependent manner
- IC50 (mouse splenocytes; Mus musculus, Splenocyte, 48 hr, 2.5-10 μM, C57BL mice): 2.5 to 5.5 µM
- Effect on viability of HaCat cells (HaCat cells [1]): effective in reducing viability
- IC50 (HaCat cells [1]; [10]): 17.8 µM
- Viability of wild type B16 melanoma cells [5]: capable of reducing cell viability
- IC50 (human lymphocytes): 5 to 10 µM

SMILES: CCOc1ccccc1OC(c1ccccc1)C1CNCCO1 (stereo not shown) [Reboxetine, reboxetine]
- IC50 (HaCat cells [1]; 24 h): > 100 µM

SMILES: CN[C@H]1CC[C@@H](c2ccc(Cl)c(Cl)c2)c2ccccc21 [Sertraline, sertraline]
- Caspase-3 activity [8]: significant increase in caspase-3 activity

SMILES: CSc1ccc2c(c1)N(CCC1CCCCN1C)c1ccccc1S2 (stereo not shown) [Thioridazine, thioridazine]
- Effect on viability of HaCat A5 cells (HaCat A5 cells): effective in reducing viability
- Effect on viability of HaCat II4 cells (HaCat II-4RT cells): effective in reducing viability
- Effect on viability of HaCat cells (HaCat cells [1]): effective in reducing viability

SMILES: COc1ccc(C(CN(C)C)C2(O)CCCCC2)cc1 (stereo not shown) [Venlafaxine, venlafaxine]
- IC50 (HaCat cells [1]; [10]): > 100 µM

- IC50 [9]: 0.6 µM
SMILES: C[C@@H]1C[C@H]2[C@@H]3CCC4=CC(=O)C=C[C@]4(C)[C@@]3(F)[C@@H](O)C[C@]2(C)[C@@]1(O)C(=O)CO [dexamethasone]

SMILES: COc1cccc2c1C(=O)c1c(O)c3c(c(O)c1C2=O)C[C@@](O)(C(=O)CO)C[C@@H]3O[C@H]1C[C@H](N)[C@H](O)[C@H](C)O1 [doxorubicin]
- Responsiveness of HaCat cells (viability) (HaCat cells [1]): equimolar IC50 as for thioridazine

SMILES: NCCC(Oc1ccc(C(F)(F)F)cc1)c1ccccc1 (stereo not shown) [norfluoxetine]
- Antiproliferative activity as compared to fluoxetine (HaCat cells [1]; viability of HaCat cells, FIG. 10): five times increased antiproliferative activity
